Converted amounts (≈) assume the structure as drawn.
Assays:
[1] = biological target: T1, Macrophage colony-stimulating factor 1 receptor (Homo sapiens, UniProt P07333); assay: Inhibition of CSF1R
[2] = biological target: Ribosomal protein S6 kinase alpha-1 (Homo sapiens) (UniProt Q15418); assay: Inhibition of RSK1 at 1 uM
Mus musculus [3] = assay: Inhibition of phosphorylated CSF1R level in 3T3/CSF1R mutant cells xenografted nude mouse at 25 mg/kg, po after 6 hrs by ELISA; format: functional
[4] = biological target: T2, NUAK family SNF1-like kinase 1 (Homo sapiens) (UniProt O60285); assay: Inhibition of ARK5 at 1 uM
T2 sequence (whole entry): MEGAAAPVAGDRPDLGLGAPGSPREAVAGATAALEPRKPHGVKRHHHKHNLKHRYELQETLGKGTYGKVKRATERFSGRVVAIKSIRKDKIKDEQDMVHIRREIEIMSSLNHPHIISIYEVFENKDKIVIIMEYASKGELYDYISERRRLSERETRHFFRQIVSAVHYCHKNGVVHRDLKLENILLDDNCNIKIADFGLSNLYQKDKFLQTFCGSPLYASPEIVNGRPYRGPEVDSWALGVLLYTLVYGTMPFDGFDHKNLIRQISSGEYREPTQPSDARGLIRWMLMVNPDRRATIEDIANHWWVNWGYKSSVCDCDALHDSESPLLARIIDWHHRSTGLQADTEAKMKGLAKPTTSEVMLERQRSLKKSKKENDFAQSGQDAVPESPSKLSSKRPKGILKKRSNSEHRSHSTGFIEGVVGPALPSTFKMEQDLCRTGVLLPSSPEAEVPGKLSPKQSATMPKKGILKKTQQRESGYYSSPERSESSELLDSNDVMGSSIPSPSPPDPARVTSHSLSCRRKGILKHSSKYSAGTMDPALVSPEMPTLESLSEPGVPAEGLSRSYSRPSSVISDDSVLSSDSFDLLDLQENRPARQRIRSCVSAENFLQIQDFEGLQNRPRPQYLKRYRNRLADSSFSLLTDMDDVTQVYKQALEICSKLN

[5] = Volume of distribution at steady state in rat at 3 mg/kg, iv and 10 mg/kg, po; format: ADME, organism-based; conditions: in vivo, read-out: Vdss
[6] = Half life in rat at 3 mg/kg, iv and 10 mg/kg, po; format: ADME, organism-based; conditions: in vivo
[7] = biological target: ALK tyrosine kinase receptor (Homo sapiens) (UniProt Q9UM73); assay: Inhibition of ALK at 1 uM
[8] = Plasma protein binding assessed as percentage unbound
[9] = Clearance in rat at 3 mg/kg, iv and 10 mg/kg, po; format: ADME, organism-based; conditions: in vivo
[10] = biological target: T1, Macrophage colony-stimulating factor 1 receptor; assay: Inhibition of CSF1R at 1 uM
[11] = Aqueous solubility of the compound; format: physicochemical; conditions: buffer
[12] = Bioavailability in rat at 3 mg/kg, iv and 10 mg/kg, po; format: ADME, organism-based; conditions: in vivo
Mus musculus [13] = assay: Inhibition of phosphorylated CSF1R level in 3T3/CSF1R mutant cells xenografted nude mouse at 25 mg/kg, po after 2 hrs by ELISA; format: functional
NIH3T3 = assay: Antiproliferative activity against mouse 3T3 cells expressing human CSF1R after 72 hrs by Celltiter assay; format: functional

T1 sequence (P07333 whole entry): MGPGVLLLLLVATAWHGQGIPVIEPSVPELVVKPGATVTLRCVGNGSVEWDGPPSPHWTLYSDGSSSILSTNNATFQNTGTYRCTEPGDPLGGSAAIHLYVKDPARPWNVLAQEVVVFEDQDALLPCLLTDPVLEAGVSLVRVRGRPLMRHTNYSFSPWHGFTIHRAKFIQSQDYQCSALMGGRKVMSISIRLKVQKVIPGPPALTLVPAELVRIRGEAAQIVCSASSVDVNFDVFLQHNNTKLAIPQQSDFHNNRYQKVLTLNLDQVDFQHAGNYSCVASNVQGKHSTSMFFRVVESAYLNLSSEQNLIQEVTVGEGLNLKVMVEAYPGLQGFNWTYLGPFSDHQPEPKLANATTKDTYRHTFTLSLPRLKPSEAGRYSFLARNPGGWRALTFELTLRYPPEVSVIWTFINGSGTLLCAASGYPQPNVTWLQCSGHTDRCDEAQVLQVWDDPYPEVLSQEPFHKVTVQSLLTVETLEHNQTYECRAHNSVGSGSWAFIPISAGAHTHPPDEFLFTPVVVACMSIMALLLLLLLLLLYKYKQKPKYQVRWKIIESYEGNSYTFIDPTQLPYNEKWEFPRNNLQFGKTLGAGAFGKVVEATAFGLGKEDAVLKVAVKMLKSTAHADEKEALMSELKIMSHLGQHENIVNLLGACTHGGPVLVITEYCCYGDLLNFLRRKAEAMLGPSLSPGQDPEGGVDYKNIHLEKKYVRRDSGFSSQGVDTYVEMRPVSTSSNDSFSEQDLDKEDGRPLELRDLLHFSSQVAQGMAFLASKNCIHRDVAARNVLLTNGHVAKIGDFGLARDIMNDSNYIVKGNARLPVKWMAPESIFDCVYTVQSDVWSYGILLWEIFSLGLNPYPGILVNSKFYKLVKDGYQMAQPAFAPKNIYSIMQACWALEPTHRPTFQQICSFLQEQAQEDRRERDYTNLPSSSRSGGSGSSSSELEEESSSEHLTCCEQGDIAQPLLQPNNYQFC
Sequence of Ribosomal protein S6 kinase alpha-1 (Homo sapiens) (Q15418 whole entry): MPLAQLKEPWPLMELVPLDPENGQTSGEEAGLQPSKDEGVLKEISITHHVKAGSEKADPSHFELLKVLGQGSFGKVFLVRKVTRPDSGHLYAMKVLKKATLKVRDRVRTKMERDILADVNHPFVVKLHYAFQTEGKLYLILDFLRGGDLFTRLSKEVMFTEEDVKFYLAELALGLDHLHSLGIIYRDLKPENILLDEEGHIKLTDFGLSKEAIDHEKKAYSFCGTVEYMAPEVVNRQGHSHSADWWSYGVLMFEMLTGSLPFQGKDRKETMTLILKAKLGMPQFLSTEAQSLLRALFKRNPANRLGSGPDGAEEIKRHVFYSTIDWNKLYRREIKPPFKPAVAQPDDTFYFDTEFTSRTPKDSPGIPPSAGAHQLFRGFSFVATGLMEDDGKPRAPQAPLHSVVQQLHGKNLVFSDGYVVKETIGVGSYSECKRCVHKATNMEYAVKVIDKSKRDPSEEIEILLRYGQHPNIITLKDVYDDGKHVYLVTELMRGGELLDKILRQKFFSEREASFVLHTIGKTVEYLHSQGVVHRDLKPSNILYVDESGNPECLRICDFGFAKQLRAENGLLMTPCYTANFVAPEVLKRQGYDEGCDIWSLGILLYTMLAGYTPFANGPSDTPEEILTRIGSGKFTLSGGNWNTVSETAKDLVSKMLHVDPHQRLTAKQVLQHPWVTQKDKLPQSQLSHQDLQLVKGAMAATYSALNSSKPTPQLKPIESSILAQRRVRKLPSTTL
Sequence of ALK tyrosine kinase receptor (Homo sapiens) (Q9UM73 19-1620 limits assumed): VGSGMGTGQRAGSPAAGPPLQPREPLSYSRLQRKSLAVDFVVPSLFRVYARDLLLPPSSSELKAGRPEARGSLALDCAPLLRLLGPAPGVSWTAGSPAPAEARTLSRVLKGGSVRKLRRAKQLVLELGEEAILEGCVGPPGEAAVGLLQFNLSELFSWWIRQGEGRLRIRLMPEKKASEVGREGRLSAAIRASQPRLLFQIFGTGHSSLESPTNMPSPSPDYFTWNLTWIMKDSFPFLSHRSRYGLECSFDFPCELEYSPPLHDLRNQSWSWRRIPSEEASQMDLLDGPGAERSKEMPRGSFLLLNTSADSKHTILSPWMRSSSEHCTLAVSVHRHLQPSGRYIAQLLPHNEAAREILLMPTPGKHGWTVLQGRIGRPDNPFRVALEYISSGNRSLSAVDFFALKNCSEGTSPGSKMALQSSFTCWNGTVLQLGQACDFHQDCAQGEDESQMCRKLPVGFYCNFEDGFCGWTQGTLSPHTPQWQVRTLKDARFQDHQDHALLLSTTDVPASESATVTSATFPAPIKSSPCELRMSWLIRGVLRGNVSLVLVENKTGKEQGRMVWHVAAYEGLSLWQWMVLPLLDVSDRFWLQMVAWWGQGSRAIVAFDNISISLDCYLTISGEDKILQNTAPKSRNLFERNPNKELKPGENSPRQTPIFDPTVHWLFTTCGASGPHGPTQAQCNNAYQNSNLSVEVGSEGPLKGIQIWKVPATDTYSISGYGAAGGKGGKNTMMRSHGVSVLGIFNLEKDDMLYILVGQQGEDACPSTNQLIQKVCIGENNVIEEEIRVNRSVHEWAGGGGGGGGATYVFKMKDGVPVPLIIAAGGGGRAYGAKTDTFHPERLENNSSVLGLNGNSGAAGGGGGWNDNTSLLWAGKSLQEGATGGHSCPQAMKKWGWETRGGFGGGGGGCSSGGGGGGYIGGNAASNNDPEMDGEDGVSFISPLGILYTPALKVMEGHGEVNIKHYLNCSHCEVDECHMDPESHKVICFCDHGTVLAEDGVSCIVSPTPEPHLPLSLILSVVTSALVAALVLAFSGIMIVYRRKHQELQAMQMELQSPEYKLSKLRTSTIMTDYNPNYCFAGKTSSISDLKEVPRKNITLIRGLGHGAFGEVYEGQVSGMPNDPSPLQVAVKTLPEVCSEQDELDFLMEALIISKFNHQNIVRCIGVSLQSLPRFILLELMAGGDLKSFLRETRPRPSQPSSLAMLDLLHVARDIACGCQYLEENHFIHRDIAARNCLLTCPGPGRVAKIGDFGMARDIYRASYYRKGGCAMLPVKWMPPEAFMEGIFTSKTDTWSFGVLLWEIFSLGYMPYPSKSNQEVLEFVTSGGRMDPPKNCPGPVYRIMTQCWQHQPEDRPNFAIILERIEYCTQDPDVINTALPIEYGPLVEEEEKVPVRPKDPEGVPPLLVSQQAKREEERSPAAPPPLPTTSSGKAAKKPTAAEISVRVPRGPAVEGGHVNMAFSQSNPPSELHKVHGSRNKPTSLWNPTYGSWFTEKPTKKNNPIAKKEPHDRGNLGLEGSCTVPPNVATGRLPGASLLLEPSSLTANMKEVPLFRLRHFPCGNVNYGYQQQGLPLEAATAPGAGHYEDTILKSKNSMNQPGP

SMILES | IC50 [1] [nM] | inhibition [2] [%] | inhibition in vivo at 25 mg/kg (Mus musculus [3]) [%] | inhibition [4] [%] | Vd [5] [L/kg] | half-life [6] [h] | inhibition [7] [%] | fraction unbound [8] | clearance [9] [mL/min/kg] | inhibition [10] [%] | solubility [11] [µM] | bioavailability [12] [%] | inhibition in vivo at 25 mg/kg (Mus musculus [13]) [%] | Activity (NIH3T3) [µM]
CCOc1cc2ncc(C(N)=O)c(Nc3ccc(F)cc3F)c2cc1N1CCN(C)CC1 | 6 | 21 | 65 | 51 | 2.5 | 2.1 | 23 | 0.11 | 12 | 96 | 290 (≈ 128 µg/mL) | 100 | 90 | 
CN1CCN(c2cc3c(Nc4cccc(Cl)c4Cl)c(C(N)=O)cnc3cc2F)CC1 | 3 |  |  |  | 1.1 | 0.8 |  | 0.044 | 23 |  | 8 (≈ 3.59 µg/mL) |  |  | 0.44
CN1CCN(c2ccc3ncc(C(N)=O)c(Nc4cccc(Cl)c4Cl)c3c2)CC1 | 8 |  |  |  | 5.9 | 0.7 |  | 0.046 | 190 |  | 44 (≈ 18.9 µg/mL) |  |  | 0.71
CN1CCN(c2ccc3ncc(C(N)=O)c(Nc4ccc(F)cc4F)c3c2)CC1 | 110 |  |  |  | 7.6 | 1.9 |  | 0.26 | 45 |  | 970 (≈ 386 µg/mL) | 21 |  | 3.9
CCOc1cc2ncc(C(N)=O)c(Nc3cccc(Cl)c3Cl)c2cc1N1CCN(C)CC1 | < 3 |  | 45 |  | 3.5 | 0.9 |  | 0.02 | 57 |  | 50 (≈ 23.7 µg/mL) | 100 | 75 | 
COc1cc2ncc(C(N)=O)c(Nc3cccc(Cl)c3Cl)c2cc1N1CCN(C)CC1 | < 3 |  |  |  | 6.8 | 2.5 |  | 0.045 | 76 |  | 810 (≈ 373 µg/mL) | 110 |  | 0.06
COc1cc2ncc(C(N)=O)c(Nc3ccc(Cl)cc3Cl)c2cc1N1CCN(C)CC1 | 3 |  |  |  | 8.7 | 1.7 |  | 0.032 | 72 |  | 160 (≈ 73.7 µg/mL) |  |  | 0.64
CN1CCN(c2cc3c(Nc4ccc(F)cc4F)c(C(N)=O)cnc3cc2F)CC1 | 54 |  |  |  | 1.4 | 1.1 |  | 0.24 | 20 |  | 71 (≈ 29.5 µg/mL) | 13 |  | 4.2
COc1cc2ncc(C(N)=O)c(Nc3ccc(F)cc3F)c2cc1N1CCN(C)CC1 | 6 |  |  |  | 2.3 | 1.8 |  | 0.25 | 15 |  | > 1000 | 90 |  | 1

— ChEMBL document CHEMBL1143306, “3-amido-4-anilinoquinolines as CSF-1R kinase inhibitors 2: Optimization of the PK profile” (Bioorg Med Chem Lett, 2009)
